Experimental data published in patent publication US10449177B2, “Methods of treating mild cognitive impairment (MCI) and related disorders” (Buck Institute for Research on Aging, priority 2010, dated 2019).

Assays:
MBP-eAPP230-624 = target: T1, MBP-eAPP230-624 (Homo sapiens, UniProt P05067); test: Small-angle X-ray scattering of MBP-eAPP230-624 incubated with compound; format: binding; conditions: for Dmax (Å) ± 10 / MWcalc/MWseq ± 0.2 / Rg (Å) ± 2 / binding to MBP-eAPP230-624 / APP and effect on conformation or dimerization: 50 μM compound; for Dmax (Å) ± 10 / MWcalc/MWseq ± 0.2 / Rg (Å) ± 2: MBP-eAPP230-624, 4° C., 1 hour; for binding to MBP-eAPP230-624 / APP and effect on conformation or dimerization: small-angle X-ray scattering
T1 construct: 100 μg of purified MBP-eAPP230-624 were incubated with 50 μM Disulfuram
Procedure: X-ray scattering data collection: To 100 μg of purified MBP-eAPP230-624 were incubated with 50 μM Disulfuram or 50 μM Sulfiram in 20 mM sodium phosphate pH 7.4, 137 mM sodium chloride, 0.05% dimethyl sulfoxide at 4° C. for 1 hour. The control sample was incubated in the buffer alone. The samples were then concentrated to approximately 1.5 mg/ml using […] NML concentrators. Small-angle X-ray scattering data were collected using protein concentrations in the range of 0.25-1.5 mg/ml and an X-ray wavelength of 1.11 Å at beam line 12.3.1 (Advanced Light Source). Samples of the filtrate were used for buffer subtraction. Data were integrated with software customized for the beam line and processed with the program PRIMUS (Konarev (2003) Journal of Applied Crystallography 36, 1277-1282). The program GNOM (Svergun, (1992) J. Appl. Crystallogr. 25, 495-503) was used to calculate the maximum dimension and the radius of gyration and to estimate the intensity of the scattering at zero angle for higher concentration samples. The molecule weight of each protein was calculated by comparing to the scattering of proteins of known molecule weight.

[1] = Brain uptake testing (PK): plasma and brain levels by LC/MS/MS; design: species or system mice; conditions: mouse, in vivo, sc
Procedure: Brain uptake testing (PK): In general, CNS exposure studies consisted of collection of heparinized plasma and brains after treatment with tropisetron, nimetazepam, disulfuram and honokiol following subcutaneous (sc) administration of the molecules at 10 mg/kg. Plasma and brain levels of the compounds were determined by quantitative LC/MS/MS methodology, conducted at Integrated Analytical Solutions (on the internet at ianalytical.net). Plasma samples were precipitated with acetonitrile:methanol (1:1) cocktail containing an internal standard. The brain samples were homogenized directly in ethylacetate or extracted from 5M guanidine homogenates using the liquid-liquid method. The resulting supernatant were evaporated to dryness and subjected to the LC/MS/MS analysis. For each compound 3 mice were used for analysis. The brain-to-plasma ratios and brain levels were then be calculated to identify the best candidate(s) for further testing.

APP = test: sAPPα, Aβ40 and Aβ42 levels in brain (PD) of APP transgenic (PDAPP) mice; format: in vivo; conditions: Tg mice; for sAPPα levels in hippocampus (Hip) and entorhinal cortex (ECx) / Aβ40 levels / Aβ42 levels: 10 mpk sc, 5 days
Procedure: […] Analysis: […]® kits from Perkin Elmer (PE) were used to quantify sAPPα (cat#: AL254C), sAPPβ (cat#: AL232C), Aβ40 (cat #: AL275C), Aβ42 (cat#: AL276C) and Tau (cat#: AL271C) from brain homogenates. The samples are added to an AlphaPlate-384 (cat#: 6005350). Twenty microliters (μl) of acceptor bead antibody mix was added to each five μl cerebrospinal fluid (CSF) sample and allowed to incubate for one hour at room temperature. Next, 25 μl of donor beads were added and allowed to incubate in the dark for 30 minutes at room temperature. Fluorescence was then measured on an EnsPire 96-well plate reader (Perkin-Elmer).
ELISA assays: ELISA kits from Invitrogen were also used to quantify Aβ1-40 (KHB3481) and Aβ1-42 (KHB3544) in duplicate from the CSF samples stored at −80° C. For assay, samples were thawed on ice and BSL-2 precautions practiced at all times. For the human Aβ 1-42 ultrasensitive ELISA, samples were diluted 1:2 (50 μl CSF plus 50 μl kit-provided standard diluent buffer). For the human Aβ1-40 ELISA, samples were diluted 1:15 (6.7 μl CSF plus […] of standard diluent buffer). Assays were performed according to manufacturer's instructions. In short, standards and samples were added to a plate pre-coated with a monoclonal capture antibody specific for the amino terminus of Hu Aβ. The samples were co-incubated with a rabbit detection antibody (Ab) specific for the carboxy terminus of the Aβ species being assayed for 3 hr at room temperature (Aβ 1-40) to overnight at 4° (Aβ 1-42) with gentle rocking After washing, bound rabbit Ab was detected using a horseradish peroxidase-labeled anti-rabbit secondary Ab. After washing again, bound HRP-anti rabbit Ab was detected colorimetrically (Spectramax 190, Molecular Devices) by the addition of a substrate solution. 1 mM 4-(2-Aminoethyl)benzenesulfonyl fluoride hydrochloride (AEBSF) protease inhibitor (101500, Calbiochem) was added to standards and samples.
In case of tropisetron the testing was done at 0.3 mpk, while in case of the other compounds (e.g., nimetazepam, disulfuram and honokiol) it was done at 10 mpk. From the collected brains the hippocampi were dissected. Levels of sAPPα, and Aβ1-40, Aβ1-42 and APPneo were measured by […] assay ([…] Perkin-Elmer), and Aβ1-40, Aβ1-42 (Invitrogen, sensitive ELISA kit) in brain homogenates of Tg mice. All procedures involved have been described (Galavan 2006, Proc Natl Acad Sci USA, 103, 7130-7135). […] The brain-to-plasma ratio (PK) of tropisetron and sAPPalpha/Aβ42 ratios (PD) were then determined.

[2] = system: 7 W cells stably transfected with APP; test: […] sAPPα assay in 7 W APP transfected cells; format: cell-based; conditions: 7 W CHO cells, 1 μM compound, 24 h
Procedure: In vitro compound testing assay: 7 W CHO cells were seeded at 50,000 cells/well in a 96 wells plate for 24 h. Then their medium was changed for fresh medium supplemented with 1 μM compounds (e.g., tropisetron, disulfuram, honokiol, and/or nimetazepam). After 24 h, 20 μl of the medium was added to 2 μl of the complete protease inhibitor with 1 μM EDTA and kept at 4° C. until analysis. 2 μl of that medium was treated with the Perkin Elmer (PE) […]® Aβ kit to determine the amount of Aβ42 secreted by the cells in 24 h using the PE-Enspire reader. Another aliquot of 2 μl of the medium was diluted with 50 μl of the PE […]® buffer and was treated with the PE […]® sAPPα kit to determine the amount of sAPPα secreted by the cells in 24 h. For the assay, 2 μl of the final mixture was treated with the acceptor bead and the donor antibody followed by addition of the donor beads and the […]® signal was measured using a PE-Enspire reader. For measurement of APPneo, the 50,000 cells were treated after seeding with fresh medium supplemented with or without the compound, but without fetal bovine serum (FBS), in order to induce the formation of the APPneo fragment. […]

[3] = Degradation in brain tissue; format: in vitro ADME
[4] = stated as known for the benzodiazepine; cited from earlier work

T1 sequence (P05067 230-624 isoform P05067-4): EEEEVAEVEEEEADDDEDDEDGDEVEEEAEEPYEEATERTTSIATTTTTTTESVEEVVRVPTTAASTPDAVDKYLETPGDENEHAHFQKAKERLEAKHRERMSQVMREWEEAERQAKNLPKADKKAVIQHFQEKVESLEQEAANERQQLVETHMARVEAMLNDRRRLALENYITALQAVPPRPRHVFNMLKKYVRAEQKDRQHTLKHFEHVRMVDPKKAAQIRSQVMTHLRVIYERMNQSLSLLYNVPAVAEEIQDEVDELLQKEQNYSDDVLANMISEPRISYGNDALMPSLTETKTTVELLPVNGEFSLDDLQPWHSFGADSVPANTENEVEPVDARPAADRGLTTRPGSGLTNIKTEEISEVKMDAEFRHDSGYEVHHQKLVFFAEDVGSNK

| SMILES | Dmax (Å) ± 10 (MBP-eAPP230-624) [Å] | MWcalc/MWseq ± 0.2 (MBP-eAPP230-624) | Rg (Å) ± 2 (MBP-eAPP230-624) [Å] | binding to MBP-eAPP230-624 / APP and effect on conformation or dimerization (MBP-eAPP230-624) | binding affinity relative to sulfuram (MBP-eAPP230-624; inferred from greater effect in X-ray scattering) | binding to MBP-eAPP230-624 / APP and effect on conformation or dimerization (MBP-eAPP230-624; listed as Disulfuram) | binding to MBP-eAPP230-624 / APP and effect on conformation or dimerization (MBP-eAPP230-624; listed as disulfuram) | blood-brain-barrier / brain penetration [1] | Aβ levels (APP; 10 mpk) | sAPPα levels in hippocampus (Hip) and entorhinal cortex (ECx) (APP) | sAPPα levels secreted by cells [2] | stability in brain tissue [3] | Aβ40 levels (APP) | Aβ42 levels (APP) | sAPPα levels in hippocampus (Hip) and entorhinal cortex (ECx) (APP; 10 mg/kg) | sAPPα levels in hippocampus (Hip) and entorhinal cortex (ECx) (APP; listed as nimetazepam, 10 mg/kg) | blood-brain-barrier penetration (known) [4] |
| --- | --- | --- | --- | --- | --- | --- | --- | --- | --- | --- | --- | --- | --- | --- | --- | --- | --- |
| CCN(CC)C(=S)SC(=S)N(CC)CC [Sulfiram] | 170 | 1.7 | 53 | bind to MBP-eAPP230-624 and alter the conformation of the protein | – | – | – | – | – | – | – | – | – | – | – | – | – |
| CCN(CC)C(=S)SSC(=S)N(CC)CC [Disulfiram, 1,1′,1″,1′″-[disulfanediylbis(carbonothioylnitrilo)]tetraethane] | 160 | 1.5 | 51 | – | higher binding affinity | can bind to APP and disrupt APP dimerization | bind to MBP-eAPP230-624 and alter the conformation of the protein | low blood-brain-barrier penetration | no changes | no changes | increase | degrades rapidly in brain tissue | – | – | – | – | – |
| C=CCc1ccc(O)c(-c2ccc(O)c(CC=C)c2)c1 [honokiol, 2-(4-hydroxy-3-prop-2-enyl-phenyl)-4-prop-2-enyl-phenol] | – | – | – | – | – | – | – | penetrates the brain well | – | no significant increase | – | – | No significant changes | No significant changes | – | – | – |
| CN1C(=O)CN=C(c2ccccc2)c2cc([N+](=O)[O-])ccc21 [Nimetazepam, 2-methyl-9-nitro-6-phenyl-2,5-diazabicyclo[5.4.0] undeca-5,8,10,12-tetraen-3-one] | – | – | – | – | – | – | – | – | – | – | – | – | No significant changes | No significant changes | significant increase | increase | cross the blood-brain-barrier well |
